{
  "source": "patent US6558900B2",
  "about": "“Regulation of apoptosis and in vitro model for studies thereof” (Emory University, priority 1996, dated 2003)",
  "test_system": "hamster liver nuclei",
  "test": "DNA fragmentation assay (HeLa S-100 incubated with hamster liver nuclei)",
  "type": "biochemical",
  "conditions": "1 mM nucleotide, 37° C., 2 hr",
  "description": "FIGS. 1A-1D illustrate dATP-dependent activation of CPP32 and DNA fragmentation in vitro. Aliquots (10 μl) of HeLa cell S-100 (50 μg) were incubated alone (lane 1), in the presence of 1 mM ATP (lane 2), or in the presence of 1 mM dATP (lane 3) at 30° C. for 1 hr in a final volume of 20 μl of buffer A. FIG. 1A, samples were subjected to SDS-PAGE and transferred to a nitrocellulose filter, probed with a monoclonal anti-CPP32 antibody, and the antigen/antibody complex was visualized by the ECL method. The filter was exposed to Kodak X-OMAT AR X-ray film for 1 min. In FIG. 1B, an aliquot of 10 μl of in vitro translated, ^35S-labeled PARP was added to each reaction. After 5 min, the samples were subjected to SDS-PAGE and transferred to a nitrocellulose filter. The filter was exposed to film for 2 hr at room temperature. In FIG. 1C, a 5 μl aliquot of in vitro translated, ^35S-labeled SREBP-2 was added to each reaction. After incubation at 30° C. for 30 min, the samples were subjected to SDS-PAGE, the gel was dried and exposed to film for 2 hr at room temperature. […]\nFIGS. 2A-2B illustrate the nucleotide specificity for in vitro activation of CPP32 and DNA fragmentation. […] The DNA was isolated, analyzed by 2% agarose gel electrophoresis and visualized by ethidium bromide staining. […]",
  "data": [
    {"smiles": "Nc1ncnc2c1ncn2[C@H]1C[C@H](O)[C@@H](COP(=O)(O)OP(=O)(O)OP(=O)(O)O)O1", "note": "[dATP, deoxyadenosine-5-triphosphate]", "values": [
      {"measurement": "DNA fragmentation in hamster liver nuclei", "result": "induced DNA fragmentation"}
    ]}
  ]
}
